Assay results as given in patent US4965280A, “Antifungal carbinols” (E. I. Du Pont de Nemours and Company, priority 1989, dated 1990).
≈ marks a conversion by molar mass, not a printed value. Where two headings read alike, the source gives them in different places.

How the values were obtained:
[1] = system: Candida albicans ATCC 11651; assay: In vivo systemic Candida infection in mice, primary assay; parameters: species or system Candida albicans; CF-1 female mice; conditions: Candida albicans, 150 mg/kg per day, read-out: % Survival
Outline: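 CF-1 female mice (20 g, 10 per group) were infected IV with 0.2 ml of 1×10^7/ml C. albicans ATCC 11651, then given test compound subcutaneously at 50 or 150 mg/kg/day at 1 and 6 h post-infection and once daily for three more days. Survival was followed for 21 days against infected untreated mice; ≥70% protection at 14 days was scored active.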

[2] = system: Venturia inaequalis; assay: Example A apple scab; format: in vivo; conditions: 100 PPM, read-out: disease control rating, Ex. A
Outline: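 Acetone solution (6% of final vol.) → suspension at 100 or 20 ppm in water + 250 ppm TREM 014 surfactant; sprayed to run-off on apple seedlings.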

[3] = system: Cercosporidium personatum; assay: Example B Peanut Late Leafspot; format: in vivo; conditions: Nothopassalora personata; 100 PPM; read-out: disease control rating, Ex. B
Outline: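 Foliar spray on peanut seedlings, to run-off; test rates 100 or 20 ppm. Formulation: acetone at 6% of final volume, water with 250 ppm polyhydric alcohol ester surfactant.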

[4] = system: Botrytis cinerea; assay: Example C bean grey mold; format: in vivo; conditions: Botrytis cinerea, 24 h, 100 PPM; read-out: disease control rating, Ex. C
Outline: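 Broad bean seedlings; foliar spray to run-off. Cmpd 100 or 20 ppm in water + 250 ppm TREM 014, acetone 6% v/v final.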

[5] = system: Erysiphe graminis f. sp. tritici; assay: Example D wheat powdery mildew; format: in vivo; conditions: Blumeria graminis, 144 h; 100 PPM; read-out: disease control rating, Ex. D
Outline: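 Spray to run-off on wheat seedlings; test suspension 100 or 20 ppm compound, acetone 6% v/v, 250 ppm polyhydric alcohol ester surfactant in water.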

[6] = system: Pyricularia oryzae; assay: whole plant or invertebrate; format: in vivo; conditions: Pyricularia oryzae, 120 h, read-out: disease control rating, Ex. E, 100 PPM
[7] = system: Rhizoctonia solani; assay: Example F rice sheath blight; format: in vivo; conditions: Rhizoctonia solani, 144 h, 100 PPM; read-out: disease control rating, Ex. F
Outline: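 Spray to run-off on rice seedlings; test suspension 100 or 20 ppm compound in water + 250 ppm TREM 014 surfactant, acetone 6% final volume.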

[8] = system: Puccinia recondita; assay: Example G wheat leaf rust; format: in vivo; conditions: 100 PPM, read-out: disease control rating, Ex. G
[9] = system: Phytophthora infestans; assay: whole plant or invertebrate; format: in vivo; conditions: Phytophthora infestans, in Solanum lycopersicum, read-out: disease control rating, Ex. H, 100 PPM
[10] = system: Plasmorpara viticola; assay: Example I grape downy mildew; format: in vivo; conditions: read-out: disease control rating, Ex. I
Outline: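 First, each compound is taken up in acetone amounting to 6% of the final volume. It is then suspended in purified water containing 250 ppm of the polyhydric alcohol ester surfactant TREM 014, at 100 or 20 ppm. Finally, the suspension is sprayed onto grape seedlings until run-off.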

[11] = system: Pythium aphanadermatum; assay: Example J cucumber damping off; format: in vivo; conditions: Pythium, 336 h; 5 kg/ha; read-out: disease control rating, Ex. J
Outline: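 Seeds and soil were inoculated with a mix of sand, cereal and Pythium aphanadermatum mycelium, the fungus responsible for cucumber damping off. They were kept in a growth chamber at 30° C. for 14 days, and disease was then rated to assess control.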

[12] = system: Rhizoctonia solani; assay: Example K cotton blight; format: in vivo; conditions: 336 h, 5 kg/ha, read-out: disease control rating, Ex. K
Protocol: […] Seeds and soil were then inoculated with a mixture of sand, cereal and mycelium of the fungus Rhizoctonia solani, causal agent of cotton blight, and incubated in a growth chamber at 30° C. for 14 days. Disease ratings were then made.

[13] = system: Fusarium oxysporum f. sp. cucumerinum; assay: Example L cucumber wilt; format: in vivo; conditions: 336 h, 5 kg/ha, read-out: disease control rating, Ex. L
Protocol: […] Seeds and soil were then inoculated with a mixture of sand, cereal and mycelium of the fungus Fusarium oxysporum f. sp. cucumerinum, causal agent of cucumber wilt, and incubated in a growth chamber at 30° C. for 14 days. Disease ratings were then made.

[14] = system: Sclerotium rolfsii; assay: Example M southern blight; format: in vivo; conditions: Agroathelia rolfsii, 336 h; 5 kg/ha; read-out: disease control rating, Ex. M
Protocol: […] Seeds and soil were then inoculated with a mixture of sand, cereal and mycelium of the fungus Sclerotium rolfsii, causal agent of sourthern blight, and incubated in a growth chamber at 30° C. for 14 days. Disease ratings were then made.

[15] = system: Candida albicans ATCC 11651; assay: In vitro antifungal MIC, microtiter broth dilution; conditions: for MIC: Candida albicans, ATCC11651, 24 h, read-out: MIC values, C. albicans, 30°, 24 hours
[16] = system: Aspergillus fumigatus ATCC 28214; assay: In vitro antifungal MIC, microtiter broth dilution; conditions: for MIC: Aspergillus fumigatus, ATCC28214, 24 h, read-out: MIC values, A. fumigatus, 30°, 24 hours
Protocol: In vitro activity (Table 5) is expressed in terms of the minimal inhibitory concentration (MIC) of the test compound which inhibits the growth of yeasts and fungi.
The target organisms, Candida albicans ATCC 11651 and Aspergillus fumigatus ATCC 28214 are standardized, [V. Bezjak, J. Clinical Micro., 21 509-512 (1984)], to a concentration of 10^7 organisms/ml and maintained at -70° until use. Test compounds are solubilized in dimethyl sulfoxide (DMSO) and diluted in Eagle's Minimum Essential Medium (EMEM) broth to achieve a final concentration of 200 μg/ml. Stock solutions of standard antifungal agents are stored at -70° and diluted in EMEM as required.
The in vitro assay utilizes a microtiter broth dilution technique [L. Polonelli and G. Morace, Mycopathologia, 86, 21-28 (1984)] and C. […] The appropriate wells are inoculated with the required organism (C. albicans at 1×10^4 organisms/ml and A. fumigatus at 5×10^5 organisms/ml) and the assay incubated at 30° for 24 hours.

| SMILES | responders at 150 mg/kg ([1]; ATCC11651, 168 h, day 7) [%] | responders at 150 mg/kg ([1]; ATCC11651, 336 h, day 14) [%] | responders at 150 mg/kg ([1]; ATCC11651, 504 h, day 21) [%] | pest or weed control at 100 ppm [2] [%] | pest or weed control at 100 ppm [3] [%] | pest or weed control at 100 ppm [4] [%] | pest or weed control at 100 ppm [5] [%] | pest or weed control at 100 ppm [6] [%] | pest or weed control at 100 ppm [7] [%] | pest or weed control at 100 ppm [8] [%] | pest or weed control at 100 ppm [9] [%] | pest or weed control at 100 ppm [10] [%] | pest or weed control at 5000 g/ha [11] [%] | pest or weed control at 5000 g/ha [12] [%] | pest or weed control at 5000 g/ha [13] [%] | pest or weed control at 5000 g/ha [14] [%] | MIC [15] [µg/mL] | MIC [16] [µg/mL] | MIC values, C. albicans ([15]; 30°, 24 hours) [µg/mL] | MIC values, A. fumigatus ([16]; 30°, 24 hours) [µg/mL] |
| --- | --- | --- | --- | --- | --- | --- | --- | --- | --- | --- | --- | --- | --- | --- | --- | --- | --- | --- | --- | --- |
| C=C(c1ccccc1F)C(O)(Cn1cncn1)c1ccc(F)cc1 (centres unmarked) [Example 10] | 20 | 10 | 0 | 0 | 76 | 52 | 63 | 0 | 17 | 64 | 0 | 0 | 0 | 0 | 0 | 0 | 1.6 (≈ 4.89 µM) | 25 (≈ 76.4 µM) | – | – |
| C=C(c1ccc(Cl)cc1)C(O)(Cn1cncn1)c1ccc(Cl)cc1Cl (centres unmarked) [Example 26, 2-(2,4-Dichlorophenyl)-3-(4-chlorophenyl)-1-(1H-1,2,4-triazol-1-yl)-3-buten-2-ol] | 100 | 100 | 100 | 100 | 100 | 96 | 86 | 31 | 61 | 97 | 23 | 86 | 0 | 25 | 25 | 35 | – | – | ≤ 0.4 | 12.5 (≈ 31.7 µM) |
| C=C(c1ccc(Cl)cc1)C(O)(Cn1cncn1)c1ccc(Cl)cc1 (centres unmarked) [Example 27] | 100 | 100 | 100 | 62 | 100 | 88 | 98 | 95 | 100 | 100 | 24 | 84 | 0 | 0 | 0 | 0 | ≤ 0.4 | 12.5 (≈ 34.7 µM) | – | – |
| C=C(c1ccc(Cl)cc1)C(O)(Cn1cncn1)c1ccc(F)cc1F (centres unmarked) [Example 28, 2-(2,4-Difluorophenyl)-3-(4-chlorophenyl)-1-(1H-1,2,4-triazol-1-yl)-3-buten-2-ol] | 100 | 90 | – | 89 | 100 | 88 | 98 | 81 | 100 | 100 | 0 | 6 | 0 | 0 | 0 | 0 | 0.03 (≈ 0.0829 µM) | 1.6 (≈ 4.42 µM) | – | – |
| C=C(c1ccccc1Cl)C(O)(Cn1cncn1)c1ccc(Cl)cc1 (centres unmarked) [Example 34] | 100 | 100 | 100 | 69 | 100 | 94 | 60 | 86 | 16 | 66 | 0 | 0 | 0 | 0 | 0 | 0 | 0.03 (≈ 0.0833 µM) | 3.2 (≈ 8.88 µM) | – | – |
| C=C(c1cccc(Cl)c1)C(O)(Cn1cncn1)c1ccc(F)cc1 (centres unmarked) [Example 39] | 100 | 80 | – | 89 | 97 | 96 | 98 | 7 | 100 | 100 | 0 | 81 | 0 | 0 | 0 | 0 | 0.4 (≈ 1.16 µM) | 25 (≈ 72.7 µM) | – | – |
| C=C(c1cccc(Cl)c1)C(O)(Cn1cncn1)c1ccc(Cl)cc1Cl (centres unmarked) [Example 40, 2-(2,4-Dichlorophenyl)-3-(3-chlorophenyl)-1-(1H-1,2,4-triazol-1-yl)-3-buten-2-ol] | 100 | 100 | – | 19 | 100 | 80 | 91 | 7 | 61 | 96 | 0 | 0 | 0 | 0 | 0 | 0 | 0.4 (≈ 1.01 µM) | 3.2 (≈ 8.11 µM) | – | – |
| C=C(c1cccc(Cl)c1)C(O)(Cn1cncn1)c1ccc(Cl)cc1 (centres unmarked) [Example 41] | 100 | 100 | – | 100 | 100 | 96 | 98 | 7 | 97 | 100 | 0 | 100 | 0 | 0 | 0 | 0 | 0.4 (≈ 1.11 µM) | 50 (≈ 139 µM) | – | – |
